This test relates to BDF1 mice, intracerebral L1210 leukemia, survival T/C. Nature of the test: NCI In Vivo Anticancer Drug Screen. Data for tumor model L1210 Leukemia (intracerebral) in B6D2F1 (BDF1) mice. To be noted: endpoint: mean survival time, higher = longer survival. In a few lines: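 Transplantable tumour-bearing mice, compound-treated vs vehicle controls; read-out survival, reported as T/C ratio.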

The mark [1] stands for this setting: dose: 6.0 mg/kg/injection, schedule: Q01DX001 (ip), vehicle: carboxymethylcellulose (CMC).
The mark [2] stands for this setting: dose: 9.0 mg/kg/injection, schedule: Q01DX001 (ip), vehicle: carboxymethylcellulose (CMC).
The mark [3] stands for this setting: dose: 27.0 mg/kg/injection, schedule: Q01DX001 (ip), vehicle: carboxymethylcellulose (CMC).
The mark [4] stands for this setting: dose: 8.0 mg/kg/injection, schedule: Q01DX001 (ip), vehicle: carboxymethylcellulose (CMC).
Setting [5] is: dose: 12.0 mg/kg/injection, schedule: Q01DX001 (ip), vehicle: carboxymethylcellulose (CMC).
[6] abbreviates: dose: 18.0 mg/kg/injection, schedule: Q01DX001 (ip), vehicle: carboxymethylcellulose (CMC).

Values joined by “and” are separate entries in the source; they are usually repeats but may differ in a detail not shown here. Equal values may be shown once. Toxic doses and inconclusive results are not listed.

In the case of `O=CC(NC(=O)N(CCCl)N=O)C(O)C(O)C(O)CO` (stereo not drawn), the T/C runs as follows: (dose: 4.0 mg/kg/injection, schedule: Q01DX001 (ip), vehicle: carboxymethylcellulose (CMC)) 111 % of control; under setting [1], 111 % of control; under setting [2], 112 % of control; (dose: 9.0 mg/kg/injection, schedule: Q01DX001 (ip), vehicle: saline) 110 % of control; (dose: 13.0 mg/kg/injection, schedule: Q01DX001 (ip), vehicle: carboxymethylcellulose (CMC)) 123 % of control; (dose: 13.0 mg/kg/injection, schedule: Q01DX001 (ip), vehicle: saline) 109 % of control. For the same compound, the T/C by setting is: (dose: 20.0 mg/kg/injection, schedule: Q01DX001 (ip), vehicle: carboxymethylcellulose (CMC)) 119 % of control; (dose: 20.0 mg/kg/injection, schedule: Q01DX001 (ip), vehicle: saline) 112 % of control; (dose: 30.0 mg/kg/injection, schedule: Q01DX001 (ip), vehicle: carboxymethylcellulose (CMC)) 119 % of control; (dose: 30.0 mg/kg/injection, schedule: Q01DX001 (ip), vehicle: saline) 117 % of control; (dose: 45.0 mg/kg/injection, schedule: Q01DX001 (ip), vehicle: carboxymethylcellulose (CMC)) 111 % of control; (dose: 45.0 mg/kg/injection, schedule: Q01DX001 (ip), vehicle: saline) 106 % of control.

Regarding `C=CCNC(=O)NCC=C`, the T/C is 101 % of control (dose: 25.0 mg/kg/injection, schedule: Q01DX009 (ip), vehicle: saline); 103 % of control (dose: 50.0 mg/kg/injection, schedule: Q01DX009 (ip), vehicle: saline); 97 % of control (dose: 100.0 mg/kg/injection, schedule: Q01DX009 (ip), vehicle: saline); 105 % of control (dose: 200.0 mg/kg/injection, schedule: Q01DX009 (ip), vehicle: saline).

Turning to `CS(=O)(=O)Nc1ccc(Nc2c3ccccc3nc3cc(N)ccc23)cc1`, the T/C (dose: 1.0 mg/kg/injection, schedule: Q01DX009 (ip), vehicle: saline) was 120 % of control; the T/C (dose: 1.0 mg/kg/injection, schedule: Q01DX009 (sc), vehicle: saline) is 96 % of control; the T/C (dose: 2.0 mg/kg/injection, schedule: Q01DX009 (ip), vehicle: saline) was 98 % of control; the T/C (dose: 2.0 mg/kg/injection, schedule: Q01DX009 (sc), vehicle: saline) was 103 % of control; the T/C (dose: 4.0 mg/kg/injection, schedule: Q01DX009 (sc), vehicle: saline) is 104 % of control.

For the compound `CS(=O)(=O)OCCCCOS(C)(=O)=O`, the T/C is, setting by setting: under setting [3], 95 % of control; (dose: 41.0 mg/kg/injection, schedule: Q01DX001 (ip), vehicle: carboxymethylcellulose (CMC)) 93 % of control; (dose: 61.0 mg/kg/injection, schedule: Q01DX001 (ip), vehicle: carboxymethylcellulose (CMC)) 94 % of control.

In the case of `N#CCCNC(=O)N(CCC#N)N=O`, the T/C runs as follows: (dose: 167.0 mg/kg/injection, schedule: Q01DX001 (ip), vehicle: carboxymethylcellulose (CMC)) 102 % of control; (dose: 250.0 mg/kg/injection, schedule: Q01DX001 (ip), vehicle: carboxymethylcellulose (CMC)) 109 % of control.

For the compound `O=NN(CCCl)C(=O)NC1CCSCC1`, the T/C is 114 % of control (dose: 3.0 mg/kg/injection, schedule: Q01DX001 (ip), vehicle: carboxymethylcellulose (CMC)); 152 % of control and 154 % of control (dose: 5.0 mg/kg/injection, schedule: Q01DX001 (ip), vehicle: carboxymethylcellulose (CMC)); 161 % of control under setting [1]; 203 % of control and 208 % of control under setting [4]; 217 % of control under setting [2]; 245 % of control and 316 % of control under setting [5]. The T/C (dose: 14.0 mg/kg/injection, schedule: Q01DX001 (ip), vehicle: carboxymethylcellulose (CMC)) was 286 % of control; the T/C under setting [6] was 230 % of control; the T/C (dose: 21.0 mg/kg/injection, schedule: Q01DX001 (ip), vehicle: carboxymethylcellulose (CMC)) is 155 % of control; the T/C under setting [3] is 94 % of control; the T/C (dose: 32.0 mg/kg/injection, schedule: Q01DX001 (ip), vehicle: carboxymethylcellulose (CMC)) is 93 % of control.

Consider `CN(N=O)C(=O)NCCCCCNC(=O)N(C)N=O`, for which the T/C was 113 % of control (dose: 210.0 mg/kg/injection, schedule: Q01DX001 (ip), vehicle: carboxymethylcellulose (CMC)) and 123 % of control (dose: 420.0 mg/kg/injection, schedule: Q01DX001 (ip), vehicle: carboxymethylcellulose (CMC)).

`O=NN(CCCl)C(=O)NC1CCS(=O)(=O)CC1`: the T/C (dose: 7.5 mg/kg/injection, schedule: Q01DX001 (ip), vehicle: carboxymethylcellulose (CMC)) was 212 % of control; the T/C under setting [4] was 171 % of control and 172 % of control; the T/C (dose: 11.4 mg/kg/injection, schedule: Q01DX001 (ip), vehicle: carboxymethylcellulose (CMC)) is 289 % of control; the T/C under setting [5] is 197 % of control and 281 % of control; the T/C (dose: 17.0 mg/kg/injection, schedule: Q01DX001 (ip), vehicle: carboxymethylcellulose (CMC)) was 298 % of control; the T/C under setting [6] is 151 % of control and 251 % of control. The T/C is, setting by setting: (dose: 25.0 mg/kg/injection, schedule: Q01DX001 (ip), vehicle: carboxymethylcellulose (CMC)) 151 % of control; under setting [3], 88 % of control; (dose: 37.0 mg/kg/injection, schedule: Q01DX001 (ip), vehicle: carboxymethylcellulose (CMC)) 90 % of control.

(Values after PubChem BioAssay AID252 (DTP/NCI, 2004).)
